Assay results taken from US6420367B1, “Pyrimidine derivatives exhibiting antitumor activity” (Shionogo & Co., Ltd., priority 1998, dated 2002).
Values after ≈ are worked out from the molar mass of the structure shown.

Legend:
[1] = test system: DT-C cells (pGV-P-transfected v-ki-ras-transformed NIH3T3 cells); experiment: Luciferase activity in control DT-C cells (IC50-C): non-specific transcription-inhibitory effect or cytotoxicity; format: cell-based, mouse; conditions: tested concentration nearest to 50% inhibition in DT-C cells; index of non-specific transcription inhibition or cytotoxicity
Excerpt: Test Example 1 Inhibitory Effect Against Cellular Signaling Derived From Ras Oncogene Products
1) Establishment of Cell Lines Used in Assay
Based on the reporter plasmid (pGV-P (Toyo Ink, Japan)), in which luciferase gene was ligated to SV40-derived minimal promoter, we constructed a plasmid designated pRRE3-luc by inserting 3 copies of chemically synthesized oligonucleotides (Sequence: CAGGATATGACTCT, derived from mouse NVL-3 (M. A. Reddy et al.(1992)Mol. Endocrinol., 6, 1051)) into upstream of the promoter. v-ki-ras-transformed NIH3T3 cells (DT cells, provided by Dr. Makoto Noda (Kyoto Univ., School of medicine)) were transfected with this plasmid by liposome-mediated transfection and transfected cell lines stably incorporated and maintained each plasmid were obtained. We named pGV-P and pRRE3-transfected cell line as DT-C and DT-R, respectively and used in the assay described below.
2) Preparation of Samples
i) All the cell lines were cultured in Dulbecco's Modified Essential Medium (DMEM: 10% Fetal Calf Serum(FCS: Hyclone, USA)) including […] kanamycin (Meiji Seika, Japan) in humidified incubator under condition of 5% CO2 at 37° C.
ii) DT-C and DT-R cells were seeded at 2500 cells/well into flat-bottom 96 well multiplate (Sumitomo bakelite) and incubated for 24 hours.
iii) Test compounds were prepared as 1 mg/ml DMSO solution.
iv) The solution of test compounds were added to the culture. Tested compounds are used at the concentration from […] to 0.51 ng/ml with by 3-fold dilution.
v) After 24 hours, the culture supernatant was completely aspirated and […] of cell-lysing solution (PGC-50 (Toyo Ink, Japan)) was added before cells were dried up. In order to the cells were lysed completely, multiwell plates were left at room temperature for 10 to 30 min. The plates were wrapped up and stored at −20° C. till the day of measurement.
3) Measurement of Samples
i) Melt the samples by putting 96 well multiplate at 37° C. and add 90 μl/well 25 mM Tris (pH 7.5).
ii) Transfer 50 μl of the sample (110 μl) to the 96 well microplate for measurement (Microlite 1 (Dynatech)).
iii) Measure the samples by the luminometer, LUMINOUS CT9000D (Dia-Yatron, Japan). We used Pickagene luminescence kit PGL2000 or LT2.0 (Toyo Ink, Japan) as substrates for luminescence measurement (50 μl/well).
4) Judgment of the Results
i) The luciferase activity of DT-C cells and DT-R cells were plotted in the graph where the relative activity and the compound concentration were expressed as Y-axis and X-axis, respectively. We judged by the degree of dissociation between the activities of DT-C cells and DT-R cells as an index.
ii) Concretely, efficacy of the compound was expressed by two values described below.
b) Among the points of concentration tested, the concentration which is the nearest to 50% inhibition concentration at DT-C cells (IC50-C), was shown as an index of non-specific transcription-inhibitory effect or of cytotoxicity. In case of positive compounds, 50% inhibition concentration above the area of active concentration in DT-C cells was expressed as IC50-C.

[2] = test system: DT-R cells (pRRE3-luc-transfected v-ki-ras-transformed NIH3T3 cells); signal derived from Ras oncogene products; experiment: Inhibitory effect against cellular signaling derived from Ras oncogene products: luciferase reporter, dissociation of DT-R from DT-C activity (MAC); format: cell-based, mouse; conditions: minimal tested concentration at which luciferase activities of DT-C cells and DT-R cells dissociated
How it was run: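 DT-R (pRRE3-luc) and control DT-C (pGV-P) v-Ki-ras NIH3T3 cells were exposed 24 h to compound in 3-fold dilutions in DMEM/10% FCS at 37 °C, then lysed for luciferase luminescence. MAC is the lowest tested concentration at which DT-R and DT-C activities dissociate.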

[3] = test system: human colon cancer HT29; experiment: In vitro cell growth inhibition test, MTT assay; format: cell-based; conditions: MTT assay 4 days after compound addition
How it was run: (§1)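 In vitro testing uses the MTT assay. The same panel includes human pancreas cancer PANC-1.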

[4] = test system: human squamous lung cancer RERF-RC-AI; experiment: In vitro cell growth inhibition test, MTT assay; format: cell-based; conditions: MTT assay 4 days after compound addition
How it was run: as §1

[5] = test system: human pancreas cancer PANC-1; experiment: In vitro cell growth inhibition test, MTT assay; format: cell-based; conditions: MTT assay 4 days after compound addition
How it was run: as §1

[6] = test system: human squamous lung cancer Ma44; experiment: In vitro cell growth inhibition test, MTT assay; format: cell-based; conditions: MTT assay 4 days after compound addition
How it was run: as §1

[7] = test system: human lung adenocarcinoma A549; experiment: In vitro cell growth inhibition test, MTT assay; format: cell-based; conditions: MTT assay 4 days after compound addition
How it was run: as §1

Structure (SMILES)	IC50, HT29 [3] [µg/mL]	IC50, RERF-LC-AI [4] [µg/mL]	IC50, PANC-1 [5] [µg/mL]	IC50, Ma44 [6] [µg/mL]	IC50, A549 [7] [µg/mL]	IC50-C [1] [µg/mL]	MAC (Minimal Active Concentration) [2] [µg/mL]
CCNC(=Nc1nc(C)ncc1CSc1nnc(-c2ccc([N+](=O)[O-])cc2N)o1)NCC [Compound A-75]	0.0038 (≈ 0.00831 µM)	0.004 (≈ 0.00874 µM)	0.0065 (≈ 0.0142 µM)	0.0058 (≈ 0.0127 µM)	0.0087 (≈ 0.019 µM)	>10	<0.000508
CCCCNC(=Nc1nc(C)ncc1CSc1nnc(-c2ccc([N+](=O)[O-])cc2)o1)NCCCC [Compound A-128]	0.042 (≈ 0.0842 µM)	0.036 (≈ 0.0722 µM)	0.026 (≈ 0.0521 µM)	0.044 (≈ 0.0882 µM)	0.047 (≈ 0.0943 µM)	3.33 (≈ 6.68 µM)	0.0412
CCNC(=Nc1nc(C(C)C)ncc1CSc1nnc(-c2ccc([N+](=O)[O-])cc2)o1)NCC [Compound A-130]	0.029 (≈ 0.0616 µM)	0.023 (≈ 0.0489 µM)	0.018 (≈ 0.0383 µM)	0.039 (≈ 0.0829 µM)	0.074 (≈ 0.157 µM)	3.33 (≈ 7.08 µM)	0.123
CCNC(=Nc1ncncc1CSc1nnc(-c2ccc(CN)cc2)o1)NCC [Compound A-119]	0.1 (≈ 0.242 µM)	0.023 (≈ 0.0558 µM)	0.068 (≈ 0.165 µM)	0.2 (≈ 0.485 µM)	1.2 (≈ 2.91 µM)	>10	0.37
CCNC(=Nc1nc(C)ncc1CSc1nnc(-c2ccsc2N)o1)NCC [Compound D-8]	0.03 (≈ 0.0717 µM)	0.012 (≈ 0.0287 µM)	0.013 (≈ 0.0311 µM)	0.036 (≈ 0.086 µM)	0.027 (≈ 0.0645 µM)	>10	0.0412
CCCNC(=Nc1nc(CC)ncc1CSc1nnc(-c2ccc([N+](=O)[O-])cc2)o1)NCCC [Compound A-138]	0.03 (≈ 0.0619 µM)	0.043 (≈ 0.0887 µM)	0.026 (≈ 0.0537 µM)	0.04 (≈ 0.0825 µM)	0.046 (≈ 0.0949 µM)	1.11 (≈ 2.29 µM)	0.0412

Now from value to compound, other results behind:

IC50, HT29 [3] [µg/mL]	IC50, RERF-LC-AI [4] [µg/mL]	IC50, PANC-1 [5] [µg/mL]	IC50, Ma44 [6] [µg/mL]	IC50, A549 [7] [µg/mL]	Structure (SMILES)	IC50-C [1] [µg/mL]	MAC (Minimal Active Concentration) [2] [µg/mL]
0.007 (≈ 0.0163 µM)	0.009 (≈ 0.0209 µM)	0.016 (≈ 0.0372 µM)	0.032 (≈ 0.0743 µM)	0.023 (≈ 0.0534 µM)	CCNC(=Nc1nc(C)ncc1CSc1nnc(-c2ccc(N)cc2F)o1)NCC [Compound A-81]	>10	0.0412
0.008 (≈ 0.0208 µM)	0.008 (≈ 0.0208 µM)	0.018 (≈ 0.0468 µM)	0.071 (≈ 0.185 µM)	0.1 (≈ 0.26 µM)	CNC(=Nc1nc(C)ncc1CSc1nnc(-c2ccc(N)cc2)o1)NC [Compound A-147]	>10	0.123
0.05 (≈ 0.117 µM)	0.016 (≈ 0.0373 µM)	0.049 (≈ 0.114 µM)	0.86 (≈ 2.01 µM)	0.15 (≈ 0.35 µM)	CCNC(=Nc1nc(C)ncc1CSc1nnc(-c2ccc(N)c(O)c2)o1)NCC [Compound A-89]	>10	0.123
0.068 (≈ 0.159 µM)	0.01 (≈ 0.0233 µM)	0.015 (≈ 0.035 µM)	0.015 (≈ 0.035 µM)	0.047 (≈ 0.11 µM)	CCNC(=Nc1nc(C)ncc1CSc1nnc(-c2ccc([N+](=O)[O-])cc2)o1)NC [Compound A-133]	>10	0.0137
